Legend:
[1] = test system: HCT116 FOP control reporter cell line; assay: HCT116 FOPFlash control reporter assay (FOP control vector, non-functional TCF elements); format: cell-based; conditions: HCT116 FOP control reporter cells, 36 hours incubation, luciferase expression
From the text: In a parallel approach, HCT116 cells were cotransfected with the FOP control vector and pcDNA3. The FOP vector is identical to the TOP construct, but it contains instead of functional TCF elements a randomized, non-functional sequence. For this transfection a stable transfected cell line was generated as well.

[2] = test system: constitutive active colorectal cancer cell (CRC) Wnt pathway; assay: HCT116 TOPFlash cellular reporter assay (Super TopFlash luciferase), constitutive active Wnt pathway; format: cell-based; conditions: HCT116 TOP reporter cells, 36 hours incubation, luciferase expression
Experimental: In order to discover and characterize small molecules which inhibit the constitutive active colorectal cancer cell (CRC) Wnt pathway, a cellular reporter assay was employed. […] Stable transfectants were generated by cotransfection with pcDNA3 and selection of stable transfected cells with 1 mg/ml G418.

In the case of `COc1ccc(NC(=O)c2ccc(-c3ccccc3)nc2)cc1NC(=O)CN1CCOCC1` [Example 34, N-{4-methoxy-3-[(morpholin-4-ylacetyl)amino]phenyl}-6-phenylnicotinamide], the IC50 ([1]; Homo sapiens, HCT-116, 36 h) is reported as ≥ 50000 nM and the IC50 ([2]; Homo sapiens, HCT-116, 36 h) is reported as 1220 nM.
With `COc1ccc(NC(=O)c2ccc(-c3ccc(F)cc3)s2)cc1NC(=O)CN1CCOCC1` [Example 36, 5-(4-fluorophenyl)-N-{4-methoxy-3-[(morpholin-4-ylacetyl)amino]phenyl}thiophene-2-carboxamide] the IC50 ([1]; Homo sapiens, HCT-116, 36 h) was 22000 nM and the IC50 ([2]; Homo sapiens, HCT-116, 36 h) was 1200 nM.
Work on `CN1CCN(C2(C(=O)Nc3cc(C(=O)Nc4nnc(-c5ccccc5)s4)ccc3OC(F)F)CC2)CC1` [Example 39, 4-(difluoromethoxy)-3-({[1-(4-methylpiperazin-1-yl)cyclopropyl]carbonyl}amino)-N-(5-phenyl-1,3,4-thiadiazol-2-yl)benzamide] yielded an IC50 ([1]; Homo sapiens, HCT-116, 36 h) of 32000 nM and an IC50 ([2]; Homo sapiens, HCT-116, 36 h) of 33.8 nM.
With `CN1CCN(C2(C(=O)Nc3cc(C(=O)Nc4nnc(-c5ccccc5)s4)ccc3OC(F)(F)F)CC2)CC1` [Example 52, 3-({[1-(4-methylpiperazin-1-yl)cyclopropyl]carbonyl}amino)-N-(5-phenyl-1,3,4-thiadiazol-2-yl)-4-(trifluoromethoxy)benzamide] the IC50 ([1]; Homo sapiens, HCT-116, 36 h) was ≥ 50000 nM and the IC50 ([2]; Homo sapiens, HCT-116, 36 h) was 26.5 nM.
In the case of `O=C(CN1CCOCC1)Nc1cc(C(=O)Nc2nnc(-c3ccccc3)s2)ccc1OC(F)(F)F` [Example 55, 3-[(morpholin-4-ylacetyl)amino]-N-(5-phenyl-1,3,4-thiadiazol-2-yl)-4-(trifluoromethoxy)benzamide], the IC50 ([1]; Homo sapiens, HCT-116, 36 h) is reported as ≥ 50000 nM and the IC50 ([2]; Homo sapiens, HCT-116, 36 h) is reported as 150 nM.
For `CN1CCN(CC(=O)Nc2cc(C(=O)Nc3nnc(-c4ccccc4)s3)ccc2C(F)(F)F)CC1` [Example 59, 3-{[(4-methylpiperazin-1-yl)acetyl]amino}-N-(5-phenyl-1,3,4-thiadiazol-2-yl)-4-(trifluoromethyl)benzamide], the IC50 ([1]; Homo sapiens, HCT-116, 36 h) was ≥ 50000 nM and the IC50 ([2]; Homo sapiens, HCT-116, 36 h) was 385 nM.
With `CC(C(=O)Nc1cc(C(=O)Nc2ccc(-c3cccc(F)c3)nc2)ccc1OC(F)(F)F)N1CCOCC1` (centres unmarked) [Example 69, N-[6-(3-fluorophenyl)pyridin-3-yl]-3-{[2-(morpholin-4-yl)propanoyl]amino}-4-(trifluoromethoxy)benzamide] the IC50 [1] was ≥ 50000 nM and the IC50 [2] was 14.8 nM.
In the case of `O=C(CN1CCOCC1)Nc1cc(C(=O)Nc2ccc(-c3cc(F)cc(F)c3)nc2)ccc1OC(F)(F)F` [Example 72, N-[6-(3,5-difluorophenyl)pyridin-3-yl]-3-[(morpholin-4-ylacetyl)amino]-4-(trifluoromethoxy)benzamide], the IC50 ([1]; Homo sapiens, HCT-116, 36 h) is reported as 8000 nM and the IC50 ([2]; Homo sapiens, HCT-116, 36 h) is reported as 106 nM.
For `O=C(CN1CC2CCC(C1)O2)Nc1cc(C(=O)Nc2ccc(-c3cc(F)cc(F)c3)nc2)ccc1OC(F)(F)F` [Example 73, N-[6-(3,5-difluorophenyl)pyridin-3-yl]-3-[(8-oxa-3-azabicyclo[3.2.1]oct-3-ylacetyl)amino]-4-(trifluoromethoxy)benzamide], the IC50 ([1]; Homo sapiens, HCT-116, 36 h) was ≥ 50000 nM and the IC50 ([2]; Homo sapiens, HCT-116, 36 h) was 98.5 nM.
For `O=C(CN1CCOCC1)Nc1cc(C(=O)Nc2ccc(-c3ccccc3F)nc2)ccc1C(F)(F)F` [Example 74, N-[6-(2-fluorophenyl)pyridin-3-yl]-3-[(morpholin-4-ylacetyl)amino]-4-(trifluoromethyl)benzamide], the IC50 ([1]; Homo sapiens, HCT-116, 36 h) was 42200 nM and the IC50 ([2]; Homo sapiens, HCT-116, 36 h) was 85.8 nM.
For `O=C(Nc1ccc(-c2ccccc2F)nc1)c1ccc(F)c(NC(=O)C2(N3CCOCC3)CC2)c1` [Example 77, 4-fluoro-N-[6-(2-fluorophenyl)pyridin-3-yl]-3-({[1-(morpholin-4-yl)cyclopropyl]carbonyl}amino)benzamide], the IC50 ([1]; Homo sapiens, HCT-116, 36 h) was 14000 nM and the IC50 ([2]; Homo sapiens, HCT-116, 36 h) was 370 nM.
For `O=C(Nc1nnc(-c2ccccc2)s1)c1ccc(F)c(NC(=O)C2(N3CCOCC3)CC2)c1` [Example 78, 4-fluoro-3-({[1-(morpholin-4-yl)cyclopropyl]carbonyl}amino)-N-(5-phenyl-1,3,4-thiadiazol-2-yl)benzamide], the IC50 ([1]; Homo sapiens, HCT-116, 36 h) was ≥ 50000 nM and the IC50 ([2]; Homo sapiens, HCT-116, 36 h) was 508 nM.
With `COc1ccc(C(=O)Nc2ccc(-c3ccccc3F)nc2)cc1NC(=O)C1(N2CCOCC2)CCC1` [Example 82, N-[6-(2-fluorophenyl)pyridin-3-yl]-4-methoxy-3-({[1-(morpholin-4-yl)cyclobutyl]carbonyl}amino)benzamide] the IC50 ([1]; Homo sapiens, HCT-116, 36 h) was ≥ 50000 nM and the IC50 ([2]; Homo sapiens, HCT-116, 36 h) was 2550 nM.
In the case of `COCc1ccc(C(=O)Nc2nnc(-c3ccccc3)s2)cc1NC(=O)CN1CCOCC1` [Example 83, 4-(methoxymethyl)-3-[(morpholin-4-ylacetyl)amino]-N-(5-phenyl-1,3,4-thiadiazol-2-yl)benzamide], the IC50 ([1]; Homo sapiens, HCT-116, 36 h) is reported as ≥ 50000 nM and the IC50 ([2]; Homo sapiens, HCT-116, 36 h) is reported as 515 nM.
In the case of `COCc1ccc(C(=O)Nc2nnc(-c3ccccc3)s2)cc1NC(=O)CN1CCN(C2CC2)CC1` [Example 84, 3-{[(4-cyclopropylpiperazin-1-yl)acetyl]amino}-4-(methoxymethyl)-N-(5-phenyl-1,3,4-thiadiazol-2-yl)benzamide], the IC50 ([1]; Homo sapiens, HCT-116, 36 h) is reported as ≥ 50000 nM and the IC50 ([2]; Homo sapiens, HCT-116, 36 h) is reported as 453 nM.
`COCCN(C)CC(=O)Nc1cc(C(=O)Nc2nnc(-c3ccccc3)s2)ccc1OC(F)(F)F` [Example 85, 3-{[N-(2-methoxyethyl)-N-methylglycyl]amino}-N-(5-phenyl-1,3,4-thiadiazol-2-yl)-4-(trifluoromethoxy)benzamide] was tested, and the IC50 ([1]; Homo sapiens, HCT-116, 36 h) was ≥ 50000 nM and the IC50 ([2]; Homo sapiens, HCT-116, 36 h) was 150 nM.
With `O=C(CN1CC2CCC(C1)O2)Nc1cc(C(=O)Nc2nnc(-c3ccccc3)s2)ccc1OC(F)F` [Example 86, 4-(difluoromethoxy)-3-[(8-oxa-3-azabicyclo[3.2.1]oct-3-ylacetyl)amino]-N-(5-phenyl-1,3,4-thiadiazol-2-yl)benzamide] the IC50 ([1]; Homo sapiens, HCT-116, 36 h) was ≥ 50000 nM and the IC50 ([2]; Homo sapiens, HCT-116, 36 h) was 890 nM.
`CC(C(=O)Nc1cc(C(=O)Nc2nnc(-c3ccccc3)s2)ccc1CS(C)(=O)=O)N1CCOCC1` (centres unmarked) [Example 87, 4-[(methylsulfonyl)methyl]-3-{[2-(morpholin-4-yl)propanoyl]amino}-N-(5-phenyl-1,3,4-thiadiazol-2-yl)benzamide] gave an IC50 ([1]; Homo sapiens, HCT-116, 36 h) of 48000 nM and an IC50 ([2]; Homo sapiens, HCT-116, 36 h) of 858 nM.
For `CC(C(=O)Nc1cc(C(=O)Nc2nnc(-c3ccccc3)s2)ccc1CS(C)(=O)=O)N1CCN(C)CC1` (centres unmarked) [Example 88, 3-{[2-(4-methylpiperazin-1-yl)propanoyl]amino}-4-[(methylsulfonyl)methyl]-N-(5-phenyl-1,3,4-thiadiazol-2-yl)benzamide], the IC50 [1] was ≥ 50000 nM and the IC50 [2] was 417 nM.
`O=C(Nc1nnc(-c2ccccc2F)s1)c1ccc(OC(F)(F)F)c(NC(=O)C2(N3CCOCC3)CC2)c1` [Example 89, N-[5-(2-fluorophenyl)-1,3,4-thiadiazol-2-yl]-3-({[1-(morpholin-4-yl)cyclopropyl]carbonyl}amino)-4-(trifluoromethoxy)benzamide] showed an IC50 ([1]; Homo sapiens, HCT-116, 36 h) of 44000 nM and an IC50 ([2]; Homo sapiens, HCT-116, 36 h) of 216 nM.
For `O=C(Nc1nnc(-c2ccc(F)cc2)s1)c1ccc(OC(F)(F)F)c(NC(=O)C2(N3CCOCC3)CC2)c1` [Example 90, N-[5-(4-fluorophenyl)-1,3,4-thiadiazol-2-yl]-3-({[1-(morpholin-4-yl)cyclopropyl]carbonyl}amino)-4-(trifluoromethoxy)benzamide], the IC50 ([1]; Homo sapiens, HCT-116, 36 h) was ≥ 50000 nM and the IC50 ([2]; Homo sapiens, HCT-116, 36 h) was 173 nM.
Compound `COc1ccc(C(=O)Nc2nnc(-c3ccccc3)s2)cc1NC(=O)CN1CCN(C)CC1` [Example 91, 4-methoxy-3-{[(4-methylpiperazin-1-yl)acetyl]amino}-N-(5-phenyl-1,3,4-thiadiazol-2-yl)benzamide] has an IC50 ([1]; Homo sapiens, HCT-116, 36 h) of 44000 nM and an IC50 ([2]; Homo sapiens, HCT-116, 36 h) of 650 nM.

From patent US10130633B2, “Compounds” (BAYER PHARMA AKTIENGESELLSCHAFT, priority 2013, dated 2018)
